Data as given in patent US20200093103A1, “BREEDING WATER FOR ANGUILLIFORMES AND METHOD FOR REARING ANGUILLIFORMES” (SHIN NIPPON BIOMEDICAL LABORATORIES, LTD., priority 2016, published 2020).

Test system: Anguilla japonica leptocephali
Assay: Induction of Anguilla japonica metamorphosis by T4 treatment in 23° C. breeding water
Type: in vivo
Parameters: key: L: During life, no characteristics of metamorphosis seen.; Stage 1: Starting phase of metamorphosis. The rostral end is rounded, and intestinal degeneration starts.; Stage 2: Peak phase of metamorphosis. Intestinal degeneration becomes pronounced.; Stage 3: Late phase of metamorphosis.; Stage 4: Pre-glass eel stage. Almost the eel form, but the body height still remains
Description: Stage 1: Starting phase of metamorphosis. The rostral end is rounded, and intestinal degeneration starts.
Stage 2: Peak phase of metamorphosis. Intestinal degeneration becomes pronounced. In the second half, the anus reaches to near the last vertical blood vessel (VBV last).
Stage 3: Late phase of metamorphosis. The preanal length (PAL) becomes equal to or shorter than the last vertical blood vessel length (VBV last Length) (PAL VBV last Length). The body height is apparently low.
Stage 4: Pre-glass eel stage. Almost the eel form, but the body height still remains. Melanophores on the body surface or endogenous melanophores are not yet seen.
Elver stage: Juvenile stage. Food intake can be identified.
A thyroid hormone (e.g., thyroxine (T4)) is adjusted to 50 to 100 mM in a 1- to 2-mL volume messflask. As a solvent, known solvents (water, alcohol) can be used. Ethanol is preferably used as the solvent.
For example, using ethanol as a solvent, T4 adjusted to 50 mM is diluted 500-fold, 5,000-fold, and 50,000-fold, respectively, and adjusted to […], 1 μM, and 100 nM. A feed can be prepared in this manner.
Artificial seawater is added to a breeding vessel, and 1/1000 of the […] T4 is added to prepare […] T4 breeding water.
Half of the breeding water is replaced every two days with breeding water of the same concentration. In the case where the concentration is changed, for example, in the case of changing from 10 nM to 2 nM, 80% to the breeding water is removed, and unadjusted artificial seawater is newly added to make 1 L.
Leptocephali visually considered to have reached a total length of 40 mm (or may be 30 mm to 50 mm, may be 35 mm to 45 mm, or may also be 35 mm or more, 40 mm or more, or 45 mm or more) are selected, anesthetized with 2-phenoxyethanol, and then photographed, and the total length of each larva is measured using an image analyzing device.
The larvae are placed in 10 nM T4 breeding water and then placed in an incubator set at 23° C., and breeding is started. In first one week, observation is performed every two days, and half of the 10 nM T4 breeding water is replaced each time. The average amount of thyroid hormone in the breeding water in stage 1 is 1 nM to 100 nM, for example, and may also be 3 nM to 30 nM, or 5 nM to 20 nM.
For larvae visually judged to have reached the second half of stage 2, the concentration of the breeding water is changed. The breeding water is diluted 5-fold or 10-fold and adjusted to 2 nM or 1 nM T4, and breeding is continued. The average amount of thyroid hormone in the breeding water in stage 2 may be, as compared with the breeding water of stage 1, diluted 2-fold to 20-fold, diluted 3 to 15-fold, or diluted 5 to 10-fold as described above. The average amount of thyroid hormone in the breeding water in stage 2 is 0.1 nM to 20 nM, for example, and may also be 0.5 nM to 10 nM, 1 nM to 5 nM, or 1 nM to 2 nM.
For larvae visually judged to have reached stage 3, the breeding water is quickly changed 0.2 nM T4 breeding water, which is a 5-fold dilution of 1 nM T4 breeding water, and further changed to 0.1 nM T4 breeding water on the following day. […] Also, in larvae whose anus position has not reached the last vertical hemal spine, when they are judged to be on the brink of stage 3, the concentration is changed as above. The average amount of thyroid hormone in the breeding water in stage 3 may be, as compared with the breeding water of stage 2, diluted 2-fold to 50-fold, diluted 3 to 15-fold, diluted 4 to 6-fold, or diluted 5-fold as described above. The average amount of thyroid hormone in the breeding water in stage 3 is 0.01 nM to 2 nM, for example, and may also be 0.05 nM to 1 nM, 0.1 nM to 0.5 nM, or 0.1 nM to 0.2 nM. […] That is, the concentration may be changed such that the thyroid hormone becomes undetectable in the breeding water in the course of stage 3.
In stage 3, breeding is continuously performed in the 0.1 nM T4 breeding water. […]

N[C@@H](Cc1cc(I)c(Oc2cc(I)c(O)c(I)c2)c(I)c1)C(=O)O [T4, thyroxine]
metamorphosis stage (individual Exp. 5-6, 174 days old, total length 34.5 mm at start, c3 onward = treatment days 1,3,5,7,8,9,10,11,12,13,14,15,16,17,18,20,22, T4 (nM) 10,10,10,10,10,10,10,2,1,1,0.2,0.1,0.1,0.1,0.1,0.1,0.1, treatment day 11, T4 2 nM): 2 | metamorphosis stage (individual Exp. 5-6, 174 days old, total length 34.5 mm at start, c3 onward = treatment days 1,3,5,7,8,9,10,11,12,13,14,15,16,17,18,20,22, T4 (nM) 10,10,10,10,10,10,10,2,1,1,0.2,0.1,0.1,0.1,0.1,0.1,0.1, treatment day 12, T4 1 nM): 2 | metamorphosis stage (individual Exp. 5-6, 174 days old, total length 34.5 mm at start, c3 onward = treatment days 1,3,5,7,8,9,10,11,12,13,14,15,16,17,18,20,22, T4 (nM) 10,10,10,10,10,10,10,2,1,1,0.2,0.1,0.1,0.1,0.1,0.1,0.1, treatment day 13, T4 1 nM): 2 | metamorphosis stage (individual Exp. 5-6, 174 days old, total length 34.5 mm at start, c3 onward = treatment days 1,3,5,7,8,9,10,11,12,13,14,15,16,17,18,20,22, T4 (nM) 10,10,10,10,10,10,10,2,1,1,0.2,0.1,0.1,0.1,0.1,0.1,0.1, treatment day 14, T4 0.2 nM): 3 | metamorphosis stage (individual Exp. 5-6, 174 days old, total length 34.5 mm at start, c3 onward = treatment days 1,3,5,7,8,9,10,11,12,13,14,15,16,17,18,20,22, T4 (nM) 10,10,10,10,10,10,10,2,1,1,0.2,0.1,0.1,0.1,0.1,0.1,0.1, treatment day 15, T4 0.1 nM): 3 | metamorphosis stage (individual Exp. 5-6, 174 days old, total length 34.5 mm at start, c3 onward = treatment days 1,3,5,7,8,9,10,11,12,13,14,15,16,17,18,20,22, T4 (nM) 10,10,10,10,10,10,10,2,1,1,0.2,0.1,0.1,0.1,0.1,0.1,0.1, treatment day 16, T4 0.1 nM): 3 | metamorphosis stage (individual Exp. 5-6, 174 days old, total length 34.5 mm at start, c3 onward = treatment days 1,3,5,7,8,9,10,11,12,13,14,15,16,17,18,20,22, T4 (nM) 10,10,10,10,10,10,10,2,1,1,0.2,0.1,0.1,0.1,0.1,0.1,0.1, treatment day 17, T4 0.1 nM): 3 | metamorphosis stage (individual Exp. 5-6, 174 days old, total length 34.5 mm at start, c3 onward = treatment days 1,3,5,7,8,9,10,11,12,13,14,15,16,17,18,20,22, T4 (nM) 10,10,10,10,10,10,10,2,1,1,0.2,0.1,0.1,0.1,0.1,0.1,0.1, treatment day 18, T4 0.1 nM): 3 | metamorphosis stage (individual Exp. 5-6, 174 days old, total length 34.5 mm at start, c3 onward = treatment days 1,3,5,7,8,9,10,11,12,13,14,15,16,17,18,20,22, T4 (nM) 10,10,10,10,10,10,10,2,1,1,0.2,0.1,0.1,0.1,0.1,0.1,0.1, treatment day 20, T4 0.1 nM): 3 | metamorphosis stage (individual Exp. 5-6, 174 days old, total length 34.5 mm at start, c3 onward = treatment days 1,3,5,7,8,9,10,11,12,13,14,15,16,17,18,20,22, T4 (nM) 10,10,10,10,10,10,10,2,1,1,0.2,0.1,0.1,0.1,0.1,0.1,0.1, treatment day 22, T4 0.1 nM): 4 | metamorphosis stage (individual Exp. 6-1, 129 days old, total length 40.6 mm at start, c3 onward = treatment days 1,3,5,7,9,10,11,12,13,14,15,16,17,18,19, T4 (nM) 10,10,10,10,2,1,0.2,0.1,0.1,0.1,0.1,0.1,0.1,0.1,0.1, treatment day 1): L | metamorphosis stage (individual Exp. 6-1, 129 days old, total length 40.6 mm at start, c3 onward = treatment days 1,3,5,7,9,10,11,12,13,14,15,16,17,18,19, T4 (nM) 10,10,10,10,2,1,0.2,0.1,0.1,0.1,0.1,0.1,0.1,0.1,0.1, treatment day 3): 1 | metamorphosis stage (individual Exp. 6-1, 129 days old, total length 40.6 mm at start, c3 onward = treatment days 1,3,5,7,9,10,11,12,13,14,15,16,17,18,19, T4 (nM) 10,10,10,10,2,1,0.2,0.1,0.1,0.1,0.1,0.1,0.1,0.1,0.1, treatment day 5): 1 | metamorphosis stage (individual Exp. 6-1, 129 days old, total length 40.6 mm at start, c3 onward = treatment days 1,3,5,7,9,10,11,12,13,14,15,16,17,18,19, T4 (nM) 10,10,10,10,2,1,0.2,0.1,0.1,0.1,0.1,0.1,0.1,0.1,0.1, treatment day 7): 2 | metamorphosis stage (individual Exp. 6-1, 129 days old, total length 40.6 mm at start, c3 onward = treatment days 1,3,5,7,9,10,11,12,13,14,15,16,17,18,19, T4 (nM) 10,10,10,10,2,1,0.2,0.1,0.1,0.1,0.1,0.1,0.1,0.1,0.1, treatment day 9): 2 | metamorphosis stage (individual Exp. 6-1, 129 days old, total length 40.6 mm at start, c3 onward = treatment days 1,3,5,7,9,10,11,12,13,14,15,16,17,18,19, T4 (nM) 10,10,10,10,2,1,0.2,0.1,0.1,0.1,0.1,0.1,0.1,0.1,0.1, treatment day 10): 2 | metamorphosis stage (individual Exp. 6-1, 129 days old, total length 40.6 mm at start, c3 onward = treatment days 1,3,5,7,9,10,11,12,13,14,15,16,17,18,19, T4 (nM) 10,10,10,10,2,1,0.2,0.1,0.1,0.1,0.1,0.1,0.1,0.1,0.1, treatment day 11): 3 | metamorphosis stage (individual Exp. 6-1, 129 days old, total length 40.6 mm at start, c3 onward = treatment days 1,3,5,7,9,10,11,12,13,14,15,16,17,18,19, T4 (nM) 10,10,10,10,2,1,0.2,0.1,0.1,0.1,0.1,0.1,0.1,0.1,0.1, treatment day 12): 3 | metamorphosis stage (individual Exp. 6-1, 129 days old, total length 40.6 mm at start, c3 onward = treatment days 1,3,5,7,9,10,11,12,13,14,15,16,17,18,19, T4 (nM) 10,10,10,10,2,1,0.2,0.1,0.1,0.1,0.1,0.1,0.1,0.1,0.1, treatment day 13): 3 | metamorphosis stage (individual Exp. 6-1, 129 days old, total length 40.6 mm at start, c3 onward = treatment days 1,3,5,7,9,10,11,12,13,14,15,16,17,18,19, T4 (nM) 10,10,10,10,2,1,0.2,0.1,0.1,0.1,0.1,0.1,0.1,0.1,0.1, treatment day 14): 3 | metamorphosis stage (individual Exp. 6-1, 129 days old, total length 40.6 mm at start, c3 onward = treatment days 1,3,5,7,9,10,11,12,13,14,15,16,17,18,19, T4 (nM) 10,10,10,10,2,1,0.2,0.1,0.1,0.1,0.1,0.1,0.1,0.1,0.1, treatment day 15): 3 | metamorphosis stage (individual Exp. 6-1, 129 days old, total length 40.6 mm at start, c3 onward = treatment days 1,3,5,7,9,10,11,12,13,14,15,16,17,18,19, T4 (nM) 10,10,10,10,2,1,0.2,0.1,0.1,0.1,0.1,0.1,0.1,0.1,0.1, treatment day 16): 3 | metamorphosis stage (individual Exp. 6-1, 129 days old, total length 40.6 mm at start, c3 onward = treatment days 1,3,5,7,9,10,11,12,13,14,15,16,17,18,19, T4 (nM) 10,10,10,10,2,1,0.2,0.1,0.1,0.1,0.1,0.1,0.1,0.1,0.1, treatment day 17): 3 | metamorphosis stage (individual Exp. 6-1, 129 days old, total length 40.6 mm at start, c3 onward = treatment days 1,3,5,7,9,10,11,12,13,14,15,16,17,18,19, T4 (nM) 10,10,10,10,2,1,0.2,0.1,0.1,0.1,0.1,0.1,0.1,0.1,0.1, treatment day 18): 3 | metamorphosis stage (individual Exp. 6-1, 129 days old, total length 40.6 mm at start, c3 onward = treatment days 1,3,5,7,9,10,11,12,13,14,15,16,17,18,19, T4 (nM) 10,10,10,10,2,1,0.2,0.1,0.1,0.1,0.1,0.1,0.1,0.1,0.1, treatment day 19): 4
